Read-outs that look alike come from different tables or passages of the source.
How the values were obtained:
[1] = system: SKMES human lung cancer xenograft; details: for 62-day survivors: 6 mice
Protocol: Female Nu/Nu mice (6-8 weeks of age; implanted with 1 mm^3 SKMES lung carcinoma fragments in the flank) were sorted into treatment groups of six mice each. […] Treatment was administered as a single bolus on Day 1, and the study was terminated on Day 62.
The mean days of survival is the number of days after which a SKMES neoplasm reached a size of 2.0 g and the animal was euthanized. A complete response is obtained if the tumor is not palpable at the end of the study. A partial response is obtained if the tumor shrinks to a size smaller than its size on Day 1 of the study.

[2] = system: HCT116 Human Colon Carcinoma Xenograft; details: for Mean Score: tumor score 1 to 10, group mean
[3] = system: MX-1 Human Breast Carcinoma Xenograft; details: for MDS (n): days until tumor reached 1.5 g
Protocol: The antitumor compounds were prepared in the following vehicle: 5% ethanol, 5% Cremophor and 90% isotonic saline.
Female Nu/Nu mice (12-13 weeks of age; implanted with 1 mm^3 MX-1 human breast carcinoma fragments in the flank) were sorted into treatment groups of six mice each (MX-1 tumor size ranges and group mean MX-1 tumor size ranges were 56-138 mg and 68-74 mg, respectively). […] All treatments were administered as a single oral bolus on Day 1, and the study was terminated on Day 60.
The mean days of survival is the number of days after which an MX-1 neoplasm reached a size of 1.5 g and the animal was euthanized. A complete response is obtained if the tumor is not palpable at the end of the study. A partial response is obtained if the tumor shrinks to a size smaller than its size on Day 1 of the study.

[4] = system: NCI-H1299 (H1299) carcinoma
Protocol: Two antitumor compounds were formulated for an i.v. dosing regime prepared in the following vehicle: 10% ethanol, 10% Cremophor and 80% isotonic saline. […] Other compounds were formulated similarly.
The MTDs for the antitumor compounds were calculated from earlier single dose data for mice receiving i.v. administration of these compounds. […] Vehicle control animals were dosed twice intravenously with half the total volume being given separated by one hour. The study was terminated at Day 60.
The results are summarized in Table 1 and include mean days of survival (MDS), number of toxic deaths, number of survivors, number of complete or partial responses, and number with stable disease. The mean days of survival is the number of days after which a neoplasm reached a size of 1.5 g and the animal was euthanized. A complete response is obtained if the tumor is not palpable at the end of the study. A partial response is obtained if the tumor shrinks to a size smaller than its size on Day 1 of the study.
A tumor scoring system was designed to provide a more quantitative ranking of efficacy (therapeutic potential) among the antitumor agents evaluated against the different human solid tumor xenografts. Each mouse in a study was given a score of from 1 to 10 at the end of the study. The scores can be summarized as follows:
The individual score for each mouse was averaged into a mean score for each treatment group. […]
The treatment protocol for the H1299 test was identical to the SK-MES test protocol. […]

[5] = system: SKMES Human Lung Carcinoma Xenograft; details: 6 mice/group, study end Day 60
Protocol: Antitumor compounds were formulated for oral administration over a wide dose range in a study to investigate the efficacy of this compound against the SKMES human lung cancer xenograft. The antitumor compounds were prepared in the following vehicle: 5% ethanol, 5% Cremophor and 90% isotonic saline.
Female Nu/Nu mice (6-8 weeks of age; implanted with 1 mm^3 SKMES lung carcinoma fragments in the flank) were sorted into treatment groups of six mice each. SKMES size ranges and group mean SKMES size ranges were 126-448 mg and 238-241 mg, respectively. […] Treatments were administered as a single oral bolus on Day 1, and the study was terminated on Day 60.
The mean days of survival is the number of days after which a SKMES neoplasm reached a size of 2.0 g and the animal was euthanized. A complete response is obtained if the tumor is not palpable at the end of the study. A partial response is obtained if the tumor shrinks to a size smaller than its size on Day 1 of the study. […]

[6] = HCT116, i.v. Day 1 (Taxol 36 mg/kg split dose, 1393 73 mg/kg single dose), 5 mice/group, Day 60
[7] = i.v. split dose qd x 1 at MTD (Taxol 36 mg/kg, 1393 72.1 mg/kg), 6 mice/group, Day 60
[8] = 40 mg/kg single oral bolus Day 1, 6 mice/group, study end Day 62
[9] = HCT116, Taxol i.p. 18 mg/kg qd x 5
[10] = HCT116, Taxol i.p. 18 mg/kg qd x 5, 5 mice, Day 60
[11] = 28 mg/kg single oral bolus Day 1, 6 mice/group, study end Day 60
[12] = 40 mg/kg single oral bolus Day 1, 6 mice/group, study end Day 60
[13] = 40 mg/kg single oral bolus Day 1

## CCC(=O)OC1CC2OCC2(OC(C)=O)C2C(OC(=O)c3ccccc3)C3(O)CC(OC(=O)C(O)C(NC(=O)OC(C)(C)C)c4ccco4)C(C)=C(C(O)C(=O)C12C)C3(C)C (centres unmarked) [Compound 1393, 3'-Desphenyl-3'-(2-furyl)-7-propionyl taxotere]
[1]; 5.2 mg/kg single IV bolus Day 1, 6 mice/group, study end Day 62
  Survivors: 0
[1]; 5.2 mg/kg single oral bolus Day 1, 6 mice/group, study end Day 62
  Survivors: 0
[1]; 10.4 mg/kg single IV bolus Day 1, 6 mice/group, study end Day 62
  Survivors: 0
[1]; 10.4 mg/kg single oral bolus Day 1, 6 mice/group, study end Day 62
  Survivors: 0
[1]; 20.8 mg/kg single IV bolus Day 1, 6 mice/group, study end Day 62
  Survivors: 0
[1]; 20.8 mg/kg single oral bolus Day 1, 6 mice/group, study end Day 62
  Survivors: 0
[1]; 42 mg/kg single IV bolus Day 1, 6 mice/group, study end Day 62
  Survivors: 4
[1]; 42 mg/kg single oral bolus Day 1, 6 mice/group, study end Day 62
  Survivors: 0
[1]; 73 mg/kg single IV bolus Day 1, 6 mice/group, study end Day 62
  Survivors: 6
[1]; 73 mg/kg single oral bolus Day 1, 6 mice/group, study end Day 62
  Survivors: 2
[1]; 104 mg/kg single IV bolus Day 1, 6 mice/group, study end Day 62
  Survivors: 6
[1]; 104 mg/kg single oral bolus Day 1, 6 mice/group, study end Day 62
  Survivors: 5
[1]; SKMES, 1393 single IV bolus 42 mg/kg (Group 5)
  62-day survivors: four
[1]; SKMES, 1393 single IV bolus 73 mg/kg (Group 4)
  62-day survivors: six
[1]; SKMES, 1393 single IV bolus 104 mg/kg (Group 3)
  62-day survivors: six
[1]; SKMES, 1393 single oral bolus 72.8 mg/kg (Group 12)
  62-day survivors: two
[1]; SKMES, 1393 single oral bolus 104 mg/kg (Group 11)
  62-day survivors: Five
[2]; [6]
  Survivors: 5
[3]; 73.4 mg/kg single oral bolus Day 1, 6 mice/group, study end Day 60
  Survivors: 5
[3]; 105 mg/kg single oral bolus Day 1, 6 mice/group, study end Day 60
  Survivors: 5
[4]; [7]
  Survivors: 4
[5]; 5.2 mg/kg single oral bolus Day 1
  Survivors: 1
[5]; 10.4 mg/kg single oral bolus Day 1
  Survivors: 1
[5]; 20.8 mg/kg single oral bolus Day 1
  Survivors: 0
[5]; 42 mg/kg single oral bolus Day 1
  Survivors: 2
[5]; 73 mg/kg single oral bolus Day 1
  Survivors: 5
[5]; 104 mg/kg single oral bolus Day 1
  Survivors: 6

## CC(=O)O[C@H]1C(=O)[C@@]2(C)[C@H]([C@H](OC(=O)c3ccccc3)[C@]3(O)C[C@H](OC(=O)[C@H](O)[C@@H](NC(=O)c4ccccc4)c4ccccc4)C(C)=C1C3(C)C)[C@]1(OC(C)=O)CO[C@@H]1C[C@@H]2O [Taxol, paclitaxel, reference compound]
[1]; [8]
  % Total Response: 0%
  Complete Responses: 0
  Partial Responses: 0
  Stable Disease: 0
  Survivors: 0
  Toxic Deaths: 1
[1]; 40 mg/kg single oral bolus Day 1, 6 mice/group, study end Day 62, days until tumor reached 2.0 g
  MDS (n): 9.2±1.4 (5) days
[1]; SKMES, Taxol orally 40 mg/kg single bolus (Group 10)
  activity: not active
[2]; HCT116, Taxol 36 mg/kg i.v. qd x 1
  increase in survival compared to control Group 1: 24%
[2]; [9]
  survival extension compared to Group 1 control mice: 84%
  Mean Score: 3.6 ± 1.4
[2]; [10]
  Complete Response: 0
  Stable Disease: 0
  Survivors: 1
  Toxic Deaths: 0
[2]; HCT116, i.v. Day 1 (Taxol 36 mg/kg split dose, 1393 73 mg/kg single dose), 5 mice/group, 2.0 g cut-off, Day 60
  MDS (n): 27.5 ± 1.7 (4) days
[2]; [6]
  Complete Response: 0
  Partial Response: 0
  Survivors: 1
  Toxic Deaths: 0
[2]; HCT116, i.v. Day 1 (Taxol 36 mg/kg split dose, 1393 73 mg/kg single dose)
  Mean Score: 2.2 ± 0.5
[2]; mouse, in vivo, iv, 73 mg/kg
  tolerability: well-tolerated
[3]; [11]
  Complete Responses: 0
  Partial Responses: 0
  Stable Disease: 1
  Survivors: 1
  Toxic Deaths: 0
  MDS (n): 23.1 ± 1.7 (5) days
[3]; [12]
  Complete Responses: 0
  Partial Responses: 1
  Stable Disease: 0
  Survivors: 1
  Toxic Deaths: 0
  MDS (n): 23.2 ± 1.3 (5) days
[3]; MX-1, single oral bolus, Taxol 40 and 28 mg/kg groups together, Day 60
  Stable Disease: one
[3]; MX-1, single oral bolus, Taxol 40 and 28 mg/kg groups together, Taxotere 100 and 70 mg/kg groups together, Day 60
  Partial Response: One
[4]; Taxol 36 mg/kg i.v.
  survival extension compared to vehicle-treated animals: 10%
[4]; i.v. split dose qd x 1 at MTD (Taxol 36 mg/kg, 1393 72.1 mg/kg), 6 mice/group, 1.5 g cut-off, Day 60
  MDS (n): 27.0 ± 4.6 (5) days
[4]; [7]
  Complete Response: 0
  Stable Disease: 0
  Survivors: 1
  Toxic Deaths: 0
[4]; i.v. split dose qd x 1 at MTD (Taxol 36 mg/kg, 1393 72.1 mg/kg), tumor score 1 to 10 per mouse, group mean
  Mean Score: 2.7 ± 1.3
[5]; [13]
  % Total Response: 0%
  Complete Responses: 0
  Partial Responses: 0
  Stable Disease: 0
  Survivors: 0
  Toxic Deaths: 0
[5]; 40 mg/kg single oral bolus Day 1, days until tumor reached 2.0 g
  MDS (n): 13.2 ± 1.4 (6) days
